In brackets after ≈: the same amount, converted by molar mass.
How the values were obtained:
[1] = test system: MDA-MB-435 breast carcinoma; test: Anchorage Dependent Growth Monolayer Assay (ADGMA), MTS readout; type: cell-based; conditions: Homo sapiens, MDA-MB-435, 72 h, average ± S.D., 3-day exposure, A490
Text: As indicated above, all of the compounds of formula I, and their corresponding pharmaceutically acceptable acid addition salts, are anti-tumor agents and are, therefore, useful in inhibiting the growth of various lymphomas, sarcomas, carcinomas, myelomas, and leukemia cell lines. […] This assay was adapted from the 60 cell line assay used by the National Cancer Institute (NCI) with the following modifications: 1) a single cell line representative for the important tumor type, viz., MDA-MB-435 breast carcinoma was utilized; 2) a tetrazolium derivative, viz., MTS, was utilized to determine cell density.
The ADGMA compares the number of viable cells following a 3-day exposure to a test compound relative to a number of cells present at the time the test compound was added. […] The absorbance at 490 nm (A490) of the formazan derivative is proportional to the number of viable cells. The IC50 for a test compound is the concentration of compound required to reduce the final cell number to 50% of the final control cell number. If cell proliferation is inhibited, the assay further defines compounds as cytostatic (cell number after 3-day compound incubation >cell number at time of compound addition) or cytotoxic (cell number after 3-day compound incubation <cell number at time of compound addition).
The MDA-MB-435 breast carcinoma line was obtained from the American Type Culture Collection (ATCC) and used between passages 4-20 following thawing. MDA-MB-435 breast carcinoma was maintained and plated in DME/F12 medium containing 10% fetal bovine serum, 15 mM HEPES (pH=7.4), penicillin 100 units/mL, and streptomycin 100 µg/mL.
Cell lines are trypsinized and counted using a Coulter counter to determine plating densities. Cells are then plated in their respective maintenance media (100 µL/well) in 96 well plates at the following densities: MDA-MB-435, 3,000 cells/well. The number of cells plates as determined in preliminary experiments, results in cell densities of 75-90% of confluency by 4 days after plating. Initial cell densities, assayed one day after plating, are roughly 0.15-0.20 absorbance units greater than the media blank. Ninety-six well plates are seeded on day 0 and the test compounds are added on day 1. A control plate is created for each cell line that receives media only in row A and cells in row B. One day following plating, test compounds are added (in a final volume of 100 µL) to the test plates. Control plates receive 10 µL MTS mixture (prepared fresh on day of addition to cell plates at a ratio of 10 µL of a 0.92 mg/mL solution of PMS to a 190 µL of a 2 mg/mL solution of MTS) and 100 µL media. A490 of control plates is read 4h after MTS addition to determine initial cell density values for each cell line. Three days after addition of test compound, 10 µL/well of MTS mixture is added to the test plates and A490 is read 4h later. A490 values for wells containing cells are corrected for media absorbance, then normalized to initial density readings to determine percent net growth. IC50 values are determined from graphs of percent net growth as a function of compound concentration. Percent net growth is calculated as (Cell + Drug A490 - Initial A490/Cell + Drug Vehicle A490 - Initial A490).

[2] = test system: MDA-MB-435 tumor xenografts; test: Human tumor xenograft growth inhibition in athymic nude mouse model; type: in vivo, athymic (nu/nu) mice; conditions: 3X/week for 3 weeks
Experimental: The histologic tumor type employed was MDA-MB-435 breast carcinoma.
Positive controls are carried out with doxorubicin administered 3 times per week i.v.
Anti-tumor activity was expressed as %T/C (Δ MTV of treated group ö Δ MTV of control group X100).

physchem = conditions: water
[3] = Mus musculus, MDA-MB-435, iv, 504 h, 10 µmol/kg i.v., * = statistically significant (p=<0.05), read-out: %T/C
[4] = Mus musculus, MDA-MB-435, iv, 504 h, 33 µmol/kg i.v., * = statistically significant (p=<0.05), read-out: %T/C

| Structure (SMILES) | IC50 [1] | Dead/Total ([2]; 10 µmol/kg i.v.) | Δ MTV ([2]; 10 µmol/kg i.v.) | Dead/Total ([2]; 33 µmol/kg i.v.) | Δ MTV ([2]; 33 µmol/kg i.v.) | response vs control in vivo at 10 µmol/kg [2, 3] | response vs control in vivo at 33 µmol/kg [2, 4] | solubility (Water solubility) | solubility (physchem) | Dead/Total ([2]; 100 µmol/kg i.v.) | Δ MTV ([2]; 100 µmol/kg i.v.) | response vs control in vivo at 100 µmol/kg ([2]; Mus musculus, MDA-MB-435, iv, 504 h, 100 µmol/kg i.v., * = statistically significant (p=<0.05), read-out: %T/C) |
| --- | --- | --- | --- | --- | --- | --- | --- | --- | --- | --- | --- | --- |
| CO[C@@H](C(=O)N[C@H]1CC[C@@H](OC(=O)C2CCCC2)CNC1=O)[C@H](O)[C@@H](O)[C@H](O)/C=C/C(C)(C)C [Ex. 2, (2R, 3R, 4S, 5R, 6E)-3,4,5-trihydroxy-2-methoxy-8,8-dimethyl-N-[(3S, 6R)-hexahydro-2-oxo-6-(cyclopentylcarbonyl)oxy-2H-azepin-3-yl]non-6-enamide] | 115 ± 40 nM | 0/8 | 94 mm^3 | 0/8 | 19 mm^3 | 67% | 13% | 18000 µg/mL (≈ 37.1 mM) |  |  |  |  |
| CO[C@@H](C(=O)N[C@H]1CC[C@@H](OC(=O)CCc2ccccc2)CNC1=O)[C@H](O)[C@@H](O)[C@H](O)/C=C/C(C)(C)C [Ex. 4, (2R, 3R, 4S, 5R, 6E)-3,4,5-trihydroxy-2-methoxy-8,8-dimethyl-N-[(3S, 6R)-hexahydro-2-oxo-6-(1-oxo-3-phenylpropoxy)-2H-azepin-3-yl]non-6-enamide] | 10 ± 10 nM | 0/8 | 93 mm^3 | 0/8 | 21 mm^3 | 53% | 12% |  | 800 µg/mL (≈ 1.54 mM) | 0/8 | -23 mm^3 | -13% |
